The source of these data is patent publication US6916832B2, “Chromeno[4,3,2-de]isoquinolines as potent dopamine receptor ligands” (University of North Carolina at Chapel Hill, priority 1999, dated 2005).

Bounds are passed on as bounds.

For one data set, the target named is T1, cloned human D4 receptor (Homo sapiens, UniProt P21917).
T1 construct: expressed in transfected cells; host or cells: not specified (e.g. C-6 glioma or CHO cells)
T1 sequence (P21917 1-419): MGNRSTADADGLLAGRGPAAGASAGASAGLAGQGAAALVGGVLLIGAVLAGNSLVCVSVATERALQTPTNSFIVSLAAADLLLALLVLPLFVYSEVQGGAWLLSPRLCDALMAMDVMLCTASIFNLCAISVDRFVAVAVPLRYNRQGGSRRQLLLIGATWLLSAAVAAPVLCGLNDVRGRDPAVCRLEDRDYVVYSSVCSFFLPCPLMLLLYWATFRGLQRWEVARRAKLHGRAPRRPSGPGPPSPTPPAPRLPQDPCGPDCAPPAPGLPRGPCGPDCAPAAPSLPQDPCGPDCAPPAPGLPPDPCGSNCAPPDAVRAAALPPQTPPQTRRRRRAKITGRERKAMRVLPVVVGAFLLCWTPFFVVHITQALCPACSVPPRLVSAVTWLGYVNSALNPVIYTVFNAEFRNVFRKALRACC
The data set is described as follows: Radioreceptor binding, cloned human D4 receptor. The note with it: read-out: K0.5 at the cloned human D4 receptor.

A further data set concerns the target T2, D1 receptors (Rattus norvegicus, UniProt P18901).
T2 construct: Frozen rat striata was homogenized by seven manual strokes; from tissue; host or cells: rat striatum
The data set is described as follows: cAMP production in rat striatum homogenate. It counts as biochemical. The procedure:
Frozen striatal tissue (ca. 40 mg) was homogenized in 4 ml of buffer (5 mM Hepes, 2 mM EGTA, pH 7.5) using 10 strokes in a Wheaton Teflon-glass homogenizer. Four ml of 50 mM Hepes with 2 mM EGTA buffer (pH 7.5) was added, and the tissue was homogenized by an additional 3 strokes. A 20 μl aliquot of this tissue homogenate was added to a prepared reaction. The reaction mixture consisted of 100 mM Hepes (pH 7.4), 100 mM NaCl, 4 mM MgCl2, 2 mM EDTA, 500 μM isobutyl methylxanthine (IBMX), 0.01% ascorbic acid, 10 μM pargyline, 2 mM ATP, 5 μM GTP, 20 mM phosphocreatine, 5 units of creatine phosphokinase (CPK), and selected concentrations of DA. The final reaction volume was 100 μl. Basal cAMP activity was determined by incubation of tissue in the reaction mixture with no drug added. Tubes were assayed in duplicate. After a 15 min incubation at 30° C., the reaction was stopped with the addition of 500 μl of 0.1 N HCl. Tubes were vortexed briefly, and then spun in a BHG Hermle Z 230 M microcentrifuge for five min at 15,000×g to eliminate large particles. The concentration of cAMP in each sample was determined with an RIA of acetylated cAMP, modified from that previously described (Harper and Brooker, 1975). Iodination of cAMP was performed using a method described previously (Patel and Linden, 1988). Assay buffer was 50 mM sodium acetate buffer with 0.1% sodium azide (pH 4.75). Standard curves of cAMP were prepared in buffer at concentrations of 2 to 500 fmoles/assay tube. To improve assay sensitivity, all samples and standards were acetylated with 10 μl of a 2:1 solution of triethylamine:acetic anhydride. Samples were assayed in duplicate. Each assay tube contained 100 μl of diluted sample, 100 μl of primary antibody (sheep, anti-cAMP, 1:100,000 dilution with 1% BSA in buffer) and 100 μl of [^125I]-cAMP (50,000 dpm/100 μl of buffer); total assay volume was 300 μl. Tubes were vortexed and stored at 4° C. overnight (approx. 18 hr). Antibody-bound radioactivity was then separated by the addition of 25 μL of BioMag rabbit, anti-goat IgG (Advanced Magnetics, Cambridge Mass.), followed by vortexing and further incubation at 4° C. for 1 hr. To these samples 1 ml of 12% polyethylene glycol/50 mM sodium acetate buffer (pH 6.75) was added and all tubes were centrifuged at 1700×g for 10 min. Supernatants were aspirated and radioactivity in the resulting pellet was determined using an LKB Wallac gamma counter (Gaithersburg, Md.). Data were calculated for each sample, and expressed initially as pmol/mg/min cAMP. […] Normalized dose-response curves were analyzed by nonlinear regression using an algorithm for sigmoid curves in the curvefitting program InPlot (Graphpad, Inc.; San Francisco, Calif.). […]
(cAMP levels reflect the balance of adenylyl cyclase and phosphodiesterase activity.)

In data set [1] the target is T3, rat striatal D1 receptors (Rattus norvegicus, UniProt P18901).
T3 construct: Frozen rat striata was homogenized by seven manual strokes; from tissue; host or cells: rat striatum
T3 sequence (P18901 whole entry): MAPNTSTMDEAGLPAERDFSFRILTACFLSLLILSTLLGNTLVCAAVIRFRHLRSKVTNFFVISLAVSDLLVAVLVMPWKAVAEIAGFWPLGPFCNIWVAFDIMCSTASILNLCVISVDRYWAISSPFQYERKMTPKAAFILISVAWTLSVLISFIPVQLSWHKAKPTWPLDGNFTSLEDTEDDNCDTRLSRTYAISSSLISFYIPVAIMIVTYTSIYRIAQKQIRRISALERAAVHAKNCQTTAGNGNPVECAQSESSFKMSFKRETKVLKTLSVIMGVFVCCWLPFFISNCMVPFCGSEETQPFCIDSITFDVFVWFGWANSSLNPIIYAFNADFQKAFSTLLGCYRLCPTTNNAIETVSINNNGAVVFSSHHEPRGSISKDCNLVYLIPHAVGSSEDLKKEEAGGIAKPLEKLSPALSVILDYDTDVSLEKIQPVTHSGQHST
The data set is described as follows: Radioreceptor binding, rat striatal D1 receptors labeled with [3H]SCH23390. The procedure:
FIG. 1 is a graphic representation of the affinity of dinoxyline (circles), dinapsoline (diamonds) and (+)-SCH23390 (solid circles) for striatal D1 receptors. Rat striatal D1 receptors were labeled with [^3H]SCH23390 (1), and unlabeled dinoxyline, dinapsoline, or (+)-SCH23390 was added to determine the specific binding of each compound to the D1 receptor.
Frozen rat striata was homogenized by seven manual strokes in a Wheaton Teflon-glass homogenizer in 8 ml ice cold 50 mM HEPES buffer with 4.0 mM MgCl2, (pH 7.4). The tissue was centrifuged at 27,000×g for 10 min, the supernatant was discarded, and the pellet was homogenized (5 strokes) and resuspended in ice cold buffer and centrifuged again. The final pellet was suspended at a concentration of approximately 2.0 mg wet weight/ml. The amount of tissue added to each assay tube was 1.0 mg, in a final assay volume of 1.0 ml. D1 receptors were labeled with [^3H] SCH23390 (0.30 nM). D2 receptors were labeled with [^3H] spiperone (0.07 nM); unlabeled ketanserin (50 nM) was added to mask binding to 5HT2 sites. Total binding was defined as radioligand bound in the absence of any competing drug. Nonspecific binding was estimated by adding unlabeled SCH23390 (1 μM) or unlabeled chlorpromazine ([…]) for D1 and D2 receptor binding assays, respectively. Triplicate determinations were made for each drug concentration in each assay. Assay tubes were incubated at 37° C. for 15 minutes. Binding was terminated by filtering with ice cold buffer on a Skatron 12 well cell harvester (Skatron, Inc., Sterling, Va.) using glass fiber filter mats (Skatron no. 7034). Filters were allowed to dry and 2.0 ml of Optiphase HI-SAF II scintillation fluid was added. After shaking for 30 minutes, radioactivity was determined on a LKB Wallac 1219 RackBeta liquid scintillation counter (Wallac, Gaithersburg, Md.). Tissue protein levels were estimated using the BCA protein assay reagent.

T2 sequence (P18901 whole entry): as above
Description for cloned human D4 receptor: Cells were grown in appropriate medium, and at confluency, harvested for membrane preparation. Flasks of cells in the same passage were scraped using a rubber policeman and collected in 50 ml centrifuge tubes. These were spun for 10 min at 1200×g, to pellet whole cells. The supernatant was discarded and then five ml of PBS (phosphate buffered saline)/flask was added to the centrifuge tubes to resuspend the cells. The tubes were then centrifuged again for min at 28,500×g. The PBS was removed and the pellet suspended in a solution of 10% DMSO in PBS. Cells were homogenized with a polytron for 10 seconds on setting 5. One ml aliquots were stored at −80° C. until use in receptor binding studies. Aliquots contained approximately 1 mg/ml of protein, as measured using the BCA protein assay reagent (Pierce, Rockford, Ill.). […]

As a reminder, the melting point is the temperature, or range, at which the solid turns liquid. A word on the EC50: it is the concentration that produces a half-maximal response. In the case of `Br.Oc1ccc2c(c1O)Oc1cccc3c1C2CNC3` (racemic) [dinoxyline, (±)-8,9-dihydroxy-1,2,3,11b-tetrahydrochromeno[4,3,2-de]isoquinoline hydrobromide], the melting point was 298 to 302 °C (dec.). Moreover, the Ki at cloned human D4 receptor was less than 45 nM. Moreover, on D1 receptors (rat striatum / rat striatal membranes, relative to dopamine, hydrobromide), the “agonist intrinsic activity at D1 receptors” value is on record as “full agonist activity”. Also, on D1 receptors (rat striatum, read-out: EC50 in stimulating synthesis of cAMP via D1 receptors), the EC50 is less than 30 nM. In addition, the Ki in data set [1] ([3H]SCH23390 label, rat striatum, read-out: K0.5 for rat striatal D1 receptors) was less than 5 nM. Besides, the “affinity for dopamine D1 receptors labeled with [3H]SCH23390 (in words)” value in data set [1] (compared with dihydrexidine) was “high affinity”. The “nH of competition curve” value in data set [1] (competition at D1 receptors labeled with [3H]SCH23390, shallow curve consistent with agonist properties) is on record as “ca. 0.7”.
